Where two headings read alike, the source gives them in different places. Square brackets hold non-standard residues; d marks the D form. Ends that are not written are not given here. Peptide text beside a SMILES is read from it. * marks the point of attachment. 5TAMRA = CN(C)c1ccc2c(c1)Oc1cc(N(C)C)ccc1C21OC(=O)c2cc(C(=O)*)ccc21
Test system: E. coli (MG1655)
Format: cell-based, Escherichia coli
Description: For all experiments and E. coli strains, cells were grown in a medium (M9gluCAAT) with M9 salts (33.7 mM Na2HPO4, 22mM KH2PO4, 8.55 mM NaCl, 9.35 mM NH4Cl), 0.2% (w/v) glucose, 0.4% (w/v) casamino acids, 1 mM MgSO4, 0.3 mM CaCl2, 1 μg/mL thiamine, and trace elements (13.4 mM ethylene-diamine-tetra-acetic-acid (EDTA), 3.1 mM FeCl3-6H2O, 0.62 mM ZnCl2, 76 μM CuCl2-2H2O, 42 μM CoCl2-2H2O, 162 μM H3BO3, 8.1 μM MnCl2-4H2O). Prior to every experiment, cells were first inoculated into M9gluCAAT and grown to stationary phase at 37°C. For all assays except the biofilm experiments, the culture was diluted to 1/10,000 or more in fresh medium and grown at 37°C until it reached an optical density at 600 nm (OD) of 0.2–0.4. For the biofilm experiments, cells were grown in M9gluCAAT supplemented with 100 μg/mL ampicillin to maintain the GFP-expressing plasmid. The overnight stationary-phase cultures were then diluted into the same medium to an OD of 0.015. See below for details on biofilm growth.
Except for the biofilm experiments, the strains used in this study were derived from MG1655 (ATCC 47076), which was used to estimate the minimum inhibitory concentration (MIC) for all the studied peptides (or peptoids) using a microplate reader (Figure 1A). To detect the timing of outer and inner membrane permeabilization to proteins, strain CJW7845 was constructed to carry two freely diffusing fluorescent proteins: mScarlet-I in the periplasm and mTagBFP2 in the cytoplasm. Construction of CJW7845 was done by transforming pBAD-mTagBFP2 plasmid (Addgene #34632, a gift from Vladislav Verkhusha; ([Subach et al., 2011])) into an E. coli strain expressing a periplasmic mScarlet-I reporter ([Cañas-Duarte 2021]), as previously described ([Chung et al., 1989]). Transformants were restreaked on fresh selection plates and confirmed via microscopy.
To determine the minimal inhibitory concentration (MIC) of the selected AMPs against either MG1655 or ATCC 25922 E. coli strains, exponentially growing cells were diluted in fresh medium to an OD = 10^−6 (~500 cells/mL) and mixed 50:50 with titrated AMP concentrations (which were chosen to be over a range that included the MIC) in a 96-well plate (flat bottom with low evaporation lid, 3595, Corning, Arizona, USA). A final OD of 5 × 10^−7 corresponds to ~250 cells/mL. OD curves were sampled every 5 min for a total of 48 h using a microplate reader (BioTek Synergy 2, Agilent Technologies Inc., California, USA). Raw data were exported as a text file and analysed using a custom-written Python script (microplate_reader_analysis.py). To measure maximum growth rates, the log(OD) was fitted using a linear regression over a 12-point moving window (60 min), which provides the instantaneous growth rate (log(OD)/h), from which the global maximum was computed. The MIC was defined as the minimum AMP concentration for which the maximum growth rate was < 0.2 log(OD)/h within the first 20 h of incubation. Each MIC experiment was performed independently at least three times (with at least two technical replicates each), and the mode across all replicates was taken as the final MIC; in the rare cases of a tie, an additional replicate was performed, which was sufficient to resolve it.

[1] = E. coli MG1655, M9gluCAAT, 37°C, 20 h, inoculum ~250 cells/mL, mode across three biological replicates

Compound: RSIRRPRLPRPRVPRPYIPPRIPRPVLPPPRFPIPRFPRGR [CamBac, camel bactenecin]
- MIC (mode MIC) (MG1655, 20 h): 0.5 µM

Compound: GLLRKGGEKIGEKLKKIGQKIKNFFQKLVPQPEQ [CRAMP]
- MIC (mode MIC) (E. coli MG1655, M9gluCAAT, 37°C, 20 h, inoculum ~250 cells/mL, max growth rate < 0.2 log(OD)/h, mode across three biological replicates with two technical replicates each): 4 µM

Compound: CO[C@H]1/C=C/O[C@@]2(C)Oc3c(C)c(O)c4c(O)c(c(/C=N/N5CCN(C)CC5)c(O)c4c3C2=O)NC(=O)/C(C)=C\C=C\[C@H](C)[C@H](O)[C@@H](C)[C@@H](O)[C@@H](C)[C@H](OC(C)=O)[C@@H]1C [Rif, rifampicin]
- MIC (mode MIC), antibiotics [1]: 16 µg/mL

Compound: RRIPFWPPNWPGPWLPPWSPPDFRIPRILRKR [Tur1B]
- MIC (mode MIC) (MG1655, 20 h): 8 µM

Compound: GIGKFLHSAKKFGKAFVGEIMNS [Mag2, magainin-2]
- MIC (mode MIC) (MG1655, 20 h): 40 µM

Compound: CC[C@H](C)[C@H](NC(=O)[C@H](CCCNC(=N)N)NC(=O)[C@@H]1CCCN1C(=O)[C@@H]1CCCN1C(=O)[C@H](CC(C)C)NC(=O)[C@H](CCCNC(=N)N)NC(=O)[C@@H]1CCCN1C(=O)[C@@H]1CCCN1C(=O)[C@H](Cc1ccccc1)NC(=O)[C@H](Cc1ccccc1)NC(=O)[C@@H]1CCCN1C(=O)[C@@H]1CCCN1C(=O)[C@@H]1CCCN1C(=O)[C@H](CCCNC(=N)N)NC(=O)[C@@H]1CCCN1C(=O)[C@H](CCCNC(=N)N)NC(=O)[C@@H]1CCCN1C(=O)[C@H](CC(C)C)NC(=O)[C@H](Cc1ccc(O)cc1)NC(=O)[C@@H]1CCCN1C(=O)[C@@H]1CCCN1C(=O)[C@H](CCCNC(=N)N)NC(=O)[C@@H]1CCCN1C(=O)[C@H](CCCNC(=N)N)NC(=O)[C@H](CCCNC(=N)N)NC(=O)[C@H](CCCNC(=N)N)NC(=O)c1ccc2c(c1)C(=O)OC21c2ccc(N(C)C)cc2Oc2cc(N(C)C)ccc21)C(=O)N1CCC[C@H]1C(=O)N1CCC[C@H]1C(=O)NCC(=O)N[C@@H](Cc1ccccc1)C(=O)N1CCC[C@H]1C(=O)N1CCC[C@H]1C(=O)N[C@@H](CCCNC(=N)N)C(=O)N[C@@H](Cc1ccccc1)C(=O)N1CCC[C@H]1C(=O)N1CCC[C@H]1C(=O)N[C@@H](CCCNC(=N)N)C(=O)N[C@@H](Cc1ccccc1)C(=O)N1CCC[C@H]1C(N)=O [5-TAMRA-PR-39] (5TAMRA-RRRPRPPYLPRPRPPPFFPPRLPPRIPPGFPPRFPPRFP-NH2; C-terminus assumed)
- MIC (mode MIC) of 5-TAMRA-labeled AMP derivatives (MG1655, 20 h): 2 µM

Compound: CC[C@@H](C)[C@@H](NC(=O)[C@@H](C)NC(=O)[C@@H](CCCNC(=N)N)NC(=O)[C@@H](Cc1c[nH]c2ccccc12)NC(=O)[C@@H](CCC(N)=O)NC(=O)[C@H](NC(=O)c1ccc2c(c1)C(=O)OC21c2ccc(N(C)C)cc2Oc2cc(N(C)C)ccc21)C(C)C)C(=O)N[C@H](CCCNC(=N)N)C(=O)N[C@@H](C(=O)N[C@H](CCCNC(=N)N)C(=O)N[C@@H](C(=O)N[C@@H](C(=O)N[C@H](CCCNC(=N)N)C(N)=O)[C@H](C)CC)C(C)C)C(C)C [5-TAMRA-DJK-5] (5TAMRA-[dV][dQ][dW][dR][dA][dI][dR][dV][dR][dV][dI][dR]-NH2; C-terminus assumed)
- MIC (mode MIC) of 5-TAMRA-labeled AMP derivatives (MG1655, 20 h): 2.5 µM

Compound: CN[C@@H]1[C@H](O)[C@H](NC)[C@H]2O[C@@]3(O)C(=O)C[C@@H](C)O[C@H]3O[C@@H]2[C@H]1O [Spect, spectinomycin]
- MIC (mode MIC), antibiotics [1]: 64 µg/mL

Compound: CC[C@H](C)[C@H](NC(=O)[C@H](CCCNC(=N)N)NC(=O)[C@H](CCCNC(=N)N)NC(=O)c1ccc2c(c1)C(=O)OC21c2ccc(N(C)C)cc2Oc2cc(N(C)C)ccc21)C(=O)N[C@@H](CCCNC(=N)N)C(=O)N1CCC[C@H]1C(=O)N[C@@H](CCCNC(=N)N)C(=O)N1CCC[C@H]1C(=O)N1CCC[C@H]1C(=O)N[C@@H](CCCNC(=N)N)C(=O)N[C@@H](CC(C)C)C(=O)N1CCC[C@H]1C(=O)N[C@@H](CCCNC(=N)N)C(=O)N1CCC[C@H]1C(=O)N[C@@H](CCCNC(=N)N)C(=O)N1CCC[C@H]1C(=O)N[C@@H](CCCNC(=N)N)C(=O)N1CCC[C@H]1C(=O)N[C@@H](CC(C)C)C(=O)N1CCC[C@H]1C(=O)N[C@@H](Cc1ccccc1)C(=O)N1CCC[C@H]1C(=O)N[C@@H](CCCNC(=N)N)C(=O)N1CCC[C@H]1C(=O)NCC(=O)N1CCC[C@H]1C(=O)N[C@@H](CCCNC(=N)N)C(=O)N1CCC[C@H]1C(=O)N[C@H](C(=O)N1CCC[C@H]1C(=O)N[C@@H](CCCNC(=N)N)C(=O)N1CCC[C@H]1C(=O)N[C@@H](CC(C)C)C(=O)N1CCC[C@H]1C(=O)N[C@@H](Cc1ccccc1)C(=O)N1CCC[C@H]1C(=O)O)[C@@H](C)CC [5-TAMRA-Bac7] (5TAMRA-RRIRPRPPRLPRPRPRPLPFPRPGPRPIPRPLPFP-OH; C-terminus assumed)
- MIC (mode MIC) of 5-TAMRA-labeled AMP derivatives (MG1655, 20 h): 0.6 µM

Compound: CC[C@H](C)[C@H](NC(=O)CNC(=O)[C@H](CC(=O)O)NC(=O)[C@H](CCCNC(=N)N)NC(=O)[C@@H](NC(=O)[C@H](CC(N)=O)NC(=O)[C@H](CCC(N)=O)NC(=O)CNC(=O)[C@@H](NC(=O)[C@H](CCCCN)NC(=O)[C@H](CCC(=O)O)NC(=O)[C@@H](NC(=O)[C@H](CCCCN)NC(=O)[C@H](CCCCN)NC(=O)[C@H](Cc1ccccc1)NC(=O)[C@H](CC(C)C)NC(=O)[C@H](CCCCN)NC(=O)[C@H](Cc1c[nH]c2ccccc12)NC(=O)[C@H](CCCCN)NC(=O)c1ccc2c(c1)C(=O)OC21c2ccc(N(C)C)cc2Oc2cc(N(C)C)ccc21)[C@@H](C)CC)C(C)C)[C@@H](C)CC)C(=O)N[C@H](C(=O)N[C@@H](CCCCN)C(=O)N[C@@H](C)C(=O)NCC(=O)N1CCC[C@H]1C(=O)N[C@@H](C)C(=O)N[C@H](C(=O)N[C@@H](C)C(=O)N[C@H](C(=O)N[C@H](C(=O)NCC(=O)N[C@@H](CCC(N)=O)C(=O)N[C@@H](C)C(=O)N[C@H](C(=O)N[C@@H](CCC(N)=O)C(=O)N[C@H](C(=O)N[C@@H](C)C(=O)N[C@@H](CCCCN)C(N)=O)[C@@H](C)CC)[C@@H](C)O)C(C)C)C(C)C)C(C)C)[C@@H](C)CC [5-TAMRA-CecA] (5TAMRA-KWKLFKKIEKVGQNIRDGIIKAGPAVAVVGQATQIAK-NH2; C-terminus assumed)
- MIC (mode MIC) of 5-TAMRA-labeled AMP derivatives (MG1655, 20 h): 2 µM

Compound: CC[C@H](C)[C@H](NC(=O)[C@H](CCCCN)NC(=O)[C@H](CCC(=O)O)NC(=O)[C@H](CCCCN)NC(=O)[C@H](CO)NC(=O)[C@H](CCCCN)NC(=O)[C@H](CCCNC(=N)N)NC(=O)[C@H](Cc1ccccc1)NC(=O)[C@H](Cc1ccccc1)NC(=O)[C@H](CC(=O)O)NC(=O)CNC(=O)[C@H](CC(C)C)NC(=O)[C@H](CC(C)C)NC(=O)c1ccc2c(c1)C(=O)OC21c2ccc(N(C)C)cc2Oc2cc(N(C)C)ccc21)C(=O)NCC(=O)N[C@@H](CCCCN)C(=O)N[C@@H](CCC(=O)O)C(=O)N[C@@H](Cc1ccccc1)C(=O)N[C@@H](CCCCN)C(=O)N[C@@H](CCCNC(=N)N)C(=O)N[C@H](C(=O)N[C@H](C(=O)N[C@@H](CCC(N)=O)C(=O)N[C@@H](CCCNC(=N)N)C(=O)N[C@H](C(=O)N[C@@H](CCCCN)C(=O)N[C@@H](CC(=O)O)C(=O)N[C@@H](Cc1ccccc1)C(=O)N[C@@H](CC(C)C)C(=O)N[C@@H](CCCNC(=N)N)C(=O)N[C@@H](CC(N)=O)C(=O)N[C@@H](CC(C)C)C(=O)N[C@H](C(=O)N1CCC[C@H]1C(=O)N[C@@H](CCCNC(=N)N)C(=O)N[C@H](C(=O)N[C@@H](CCC(=O)O)C(=O)N[C@@H](CO)C(=O)O)[C@@H](C)O)C(C)C)[C@@H](C)CC)C(C)C)[C@@H](C)CC [5-TAMRA-LL-37]
- MIC (mode MIC) of 5-TAMRA-labeled AMP derivatives [1]: 2 µM
